Source: US8105798B2, “Cytoplasmic activity of retinoid X receptor and its regulation by ligands and dimerization” (The Burnham Institute, priority 2003, dated 2012)

Assays:
Format in all cases: cell-based
RXRα = target: T1, RXRα (Homo sapiens, UniProt P19793); assay: subcellular localization of RXRα by immunostaining / confocal microscopy
T1 sequence (P19793 1-462): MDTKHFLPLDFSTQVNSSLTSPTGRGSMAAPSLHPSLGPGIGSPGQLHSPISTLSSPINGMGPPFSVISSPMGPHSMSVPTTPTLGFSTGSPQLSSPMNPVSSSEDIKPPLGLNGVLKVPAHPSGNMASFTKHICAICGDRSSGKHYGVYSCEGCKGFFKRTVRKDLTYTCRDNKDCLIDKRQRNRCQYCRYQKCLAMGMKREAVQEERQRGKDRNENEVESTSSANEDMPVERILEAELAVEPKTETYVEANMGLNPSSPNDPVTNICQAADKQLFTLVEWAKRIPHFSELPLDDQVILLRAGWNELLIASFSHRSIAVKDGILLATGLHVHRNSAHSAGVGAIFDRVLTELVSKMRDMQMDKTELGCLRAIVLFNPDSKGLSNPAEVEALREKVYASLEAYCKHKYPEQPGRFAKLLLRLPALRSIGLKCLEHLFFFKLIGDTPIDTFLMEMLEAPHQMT
Protocol: Expression vector for Flag-RXRα was transfected into the indicated cell line. Cells were then treated with 15d-PGJ2 (5.micro.M) for 3 hr, then immunostained with anti-Flag antibody to detect RXRα Flag-RXRα was visualized by confocal microscopy.
(§1) Expression vectors for Flag-RXRα and GFP-TR3 were transfected into PC12 cells alone or together. Cells were then treated with 15d-PGJ2 (5.micro.M) for 3 hr, then immunostained with anti-Flag antibody to detect RXRα Flag-RXRα and GFP-TR3 were visualized by confocal microscopy, and their images merged.
Cos7 cells were transfected with GFP-RXRα and Mito-REP, and treated with or without 10^-4 M indomethacin or diclofenac for 4 hours. The distribution of GFP-RXRα and Mito-REP was visualized by confocal microscopy.
For example, cells such as LNCaP prostate cancer cells are induced to apoptosis using agents such as the phorbol ester, TPA (12-0-tetradecanolphorbol 13-acetate, Cell Signaling Technology Cat. No.: 9905).
For example, heat shock protein 60 (Hsp60) is a mitochondrial specific protein. […] The treated cells are then incubated with a conjugated secondary antibody and visualized using confocal microscopy. In this example, Cy-3 or FITC conjugated secondary antibodies were used for visualizing the sub-cellular localization of RXRα or Hsp60, respectively.
A GFP-RXRα expression vector was transfected into COS-7 cells and GFP-RXRα was expressed.
A fusion protein created by combining GFP and amino acids 348-398 of RXRα, is transfected into HEK293T cells.
To determine the role of 15d-PGJ2 binding on the new RXR pathway, a confocal microscopy analysis was performed to determine subcellular localization of RXRα in the presence or absence of 15d-PGJ2.
(§2) Because RXR heterodimerizes with TR3, Inventor examined the effect of 15d-PGJ2 on TR3 subcellular localization in PC12 phaeochromocytoma cells.
To determine the mechanism of RXRα mediated apoptosis in the presence of sulindac sulfide, Inventors examined the effect of sulindac sulfide on subcellular localization of RXRα

TR3 = assay: subcellular localization of TR3 and RXRα/TR3 heterodimer by confocal microscopy; details: 75 μM
Protocol: as §1, with “FIG. 10 is a series of confocal microscope images of immunostained PC12 cells illustrating that binding of 15d-PGJ2 to RXRα induces translocation of RXRα homodimer/monomer or TR3/RXRα heterodimer from the nucleus to the cytoplasm. Expression” for “Expression”
In the absence of TPA, both TR3 and RXRα reside mainly in the nucleus. […] (FIG. 2).
as §2
Either TR3 alone, RXRα alone or TR3 and RXRα was transfected into HEK293T cells. Cells were then treated with sulindac sulfide (75.micro.M) for 6 hr. RXR.alpha and TR3 localization was determined by immunostaining, and cells were also stained by DAPI. […] Thus, the effect of sulindac sulfide on the cytoplasmic localization of TR3 depends on RXRα expression, probably due to their heterodimerization. Thus, sulindac sulfide induces nuclear export of RXRα and RXRα/TR3 heterodimer. (FIG. 14b).
The effect of sulindac sulfide on mitochondrial targeting of RXRα and TR3 was determined by treating H460 lung cancer cells with 75 micro.M sulindac sulfide for 6 hours and visualization of the cellular localization of these proteins by immunostaining. A two stage detection system was used having either anti-RXR or anti TR3 as a first stage (Santa Cruz Biotechnology and Abgent, respectively). In the absence of treatment, both RXRα and TR3 were found mainly in the nucleus.

[1] = system: CV-1, MGC80-3, HEK293T and HCT116 cells; assay: apoptosis determined by DAPI staining; details: 75 μM, 24 hr
Protocol: To determine the involvement of RXRα in sulindac sulfide-induced apoptosis of cancer cells, its effect on apoptosis of CV-1 cells (available from American Type Cell Culture, Manassas, Va., as accession number CCL-70) in the absence or presence of RXRα transfection was evaluated. FIG. 13a. RXR was cloned into a pGFP.C2 vector (GenBank Accession #: U19281) according to the procedure of Li et al., Science 289, 1159-1164 (2000). CV-1 cells were transfected with or without RXRα prior to treatment with sulindac sulfide (75.micro.M) for 24 hr. […] Louis, Mo., as catalogue number D9542), and the presence of nuclear fragmentation and/or chromatin condensation is an indicator of apoptosis. […] The requirement of RXRαwas also examined using RXRα siRNA SEQ ID No.: 12 approach. MGC80-3 cells, HEK293T (ATCC, accession number CCL-1573) and HCT116 (ATCC, accession number CCL-247) cell lines were transfected with RXRα siRNA or control siRNA using oligofectamine (from Invitrogen, Corp). Cell samples from each cell line were lysed and the cell extracts were prepared by immunoblotting to determine RXRα expression. Cells transfected with RXR.alpha siRNA or control siRNA were treated with sulindac sulfide (75.micro.M) for 24 hr, and apoptosis was determined by DAPI staining.

How did the “endogenous RXRα localization” value (RXRα; Calu-6, H460, LNCaP, ZR-75-1, MGC80-3 and HEK293T cells, 75 μM, 6 hr) turn out when `CSc1ccc(/C=C2/C(C)=C(CC(=O)O)c3cc(F)ccc32)cc1` [sulindac sulfide] was run?
The value was “found mainly in the cytoplasm”.

What about the RXRα mitochondrial localization (RXRα; H460, MGC80-3 and LNCaP cells, 75 μM, 6 hr) of the same molecule?
Its RXRα mitochondrial localization is “results in RXRα mitochondrial localization”.

And the “transfected RXRα localization” value (RXRα; HEK293T cells, sulindac sulfide)?
Its value is “found in the cytoplasm”.

What about the “mitochondrial targeting of RXRα and TR3 (Hsp60)” value (TR3; H460 lung cancer cells, 6 hours) of the same molecule?
Its value is “extensive co-localization of RXRα and TR3 with Hsp60”.

And the “TR3 and RXRα localization, co-transfected” value (TR3; HEK293T cells, 6 hr)?
The value was “both TR3 and RXRα are found in the cytoplasm”.

And the “TR3 localization, TR3 transfected alone” value (TR3; HEK293T cells, 6 hr)?
The value was “does not affect the nuclear localization of TR3”.

And the “apoptosis, cells transfected with RXRα” value ([1]; CV-1 cells, DAPI staining)?
Its value is “extensive apoptosis”.

And the “apoptosis in cells transfected with RXRα siRNA versus control siRNA” value ([1]; MGC80-3, HEK293T and HCT116 cells)?
The value was “significant reduction of apoptosis”.
